Results from ChEMBL document CHEMBL1201862, “PubChem BioAssay data set” (2004).
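Compound exposure: 48 hours, 5 concentrations, 96-well plates. GI50 marks 50% less growth.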 Active and inactive are the calls of the source. Cut-off read from the data, not from the text of the source: active = GI50 up to about 1.1 µM and inactive = higher.

Legend:
Test in all cases: NCI-60 cell line screen, 48 h
786-0 = tested on: 786-0
A549 = tested on: A549
DU-145 = tested on: DU-145
EKVX = tested on: EKVX
HCT-15 = tested on: HCT-15
HOP-62 = tested on: HOP-62
HT-29 = tested on: HT-29
LOX IMVI = tested on: LOX IMVI
MDA-MB-231 = tested on: MDA-MB-231
MDA-MB-435 = tested on: MDA-MB-435
MOLT-4 = tested on: MOLT-4
Malme-3M = tested on: Malme-3M
NCI-H23 = tested on: NCI-H23
RPMI-8226 = tested on: RPMI-8226
SF-295 = tested on: SF-295
SK-MEL-2 = tested on: SK-MEL-2
SR = tested on: SR
TK-10 = tested on: TK-10
U-251 = tested on: U-251
UACC-62 = tested on: UACC-62

Compound | GI50 (786-0) | GI50 (A549) | GI50 (DU-145) | GI50 (EKVX) | GI50 (HCT-15) [µM] | GI50 (HOP-62) | GI50 (HT-29) | GI50 (LOX IMVI) | GI50 (MDA-MB-231) | GI50 (MDA-MB-435) | GI50 (MOLT-4) | GI50 (Malme-3M) | GI50 (NCI-H23) | GI50 (RPMI-8226) | GI50 (SF-295) | GI50 (SK-MEL-2) | GI50 (SR) | GI50 (TK-10) | GI50 (U-251) | GI50 (UACC-62)
Cc1cnc2c(c1)C(=O)C1=C(C2=O)C2OC(=O)CC2OC1(C)C (stereo not given) | 0.258 µM (active) | 1.53 µM (inactive) | 1.64 µM (inactive) | 0.209 µM (active) | 0.0643 | 1.18 µM (inactive) | 0.0588 µM (active) | 0.193 µM (active) | 0.0764 µM (active) | 0.308 µM (active) | 0.0776 µM (active) | 0.0736 µM (active) | 0.321 µM (active) | 0.188 µM (active) | 1.25 µM (inactive) | 0.964 µM (active) | 0.0389 µM (active) | 0.735 µM (active) | 0.109 µM (active) | 0.179 µM (active)
O=c1[nH]n(Cc2ccccc2CCl)c2ccc([N+](=O)[O-])cc12 | 55.5 µM (inactive) | 31.2 µM (inactive) | 59.7 µM (inactive) | 45.2 µM (inactive) | 60.8 | 47.6 µM (inactive) | 34.8 µM (inactive) | 55.7 µM (inactive) | 38.4 µM (inactive) | 35.1 µM (inactive) | 26.6 µM (inactive) | 83.4 µM (inactive) | 83 µM (inactive) | 32 µM (inactive) | 37.8 µM (inactive) | 43.4 µM (inactive) | 33.6 µM (inactive) | 54.3 µM (inactive) | 42.3 µM (inactive) | 30.5 µM (inactive)
COc1cccc(/N=C/c2cc(OC)c(OC)c(OC)c2)c1 | > 100 µM (inactive) | > 100 µM (inactive) | > 100 µM (inactive) | > 86.7 µM (inactive) | 56.1 | 94 µM (inactive) | 91.2 µM (inactive) | > 37.2 µM (inactive) | > 100 µM (inactive) | 18.8 µM (inactive) | > 72.1 µM (inactive) | > 100 µM (inactive) | > 100 µM (inactive) | > 100 µM (inactive) | 69.8 µM (inactive) | > 85.1 µM (inactive) | > 23.1 µM (inactive) | > 100 µM (inactive) | > 100 µM (inactive) | 1.75 µM (inactive)
O=C(NCCc1ccccc1)c1cc(/C=C/c2cc(O)ccc2O)ccc1O | 2.38 µM (inactive) | 10.3 µM (inactive) | 8.59 µM (inactive) | 2.91 µM (inactive) | 2.71 | 5.69 µM (inactive) | 18.3 µM (inactive) | 4.17 µM (inactive) | 4.36 µM (inactive) | 3.96 µM (inactive) | 2.52 µM (inactive) | 2.22 µM (inactive) | 4.95 µM (inactive) | 1.82 µM (inactive) | 15.9 µM (inactive) | 3.57 µM (inactive) | 3.01 µM (inactive) | 2.93 µM (inactive) | 2.36 µM (inactive) | 2.03 µM (inactive)
C/C(=N/NC(=S)Nc1cccc(C)c1)c1ccccn1 | 0.0217 µM (active) | 1.87 µM (inactive) | 2.19 µM (inactive) | 0.0685 µM (active) | 0.0119 | 0.0341 µM (active) | < 0.01 µM (active) | < 0.0121 µM (active) | < 0.01 µM (active) | 1.35 µM (inactive) | < 0.01 µM (active) | 0.319 µM (active) | < 0.01 µM (active) | < 0.01 µM (active) | 0.296 µM (active) | 1.68 µM (inactive) | < 0.01 µM (active) | 0.274 µM (active) | 0.0208 µM (active) | 0.331 µM (active)
Cn1c2ccccc2c2c3c(=O)[nH][nH]c(=O)c3c3c4ccccc4n(C)c3c21 | > 100 µM (inactive) | > 100 µM (inactive) | > 100 µM (inactive) | > 100 µM (inactive) | 99.1 | > 96.6 µM (inactive) | > 100 µM (inactive) | > 100 µM (inactive) | > 100 µM (inactive) | > 100 µM (inactive) | > 100 µM (inactive) | > 100 µM (inactive) | 12.5 µM (inactive) | 13.6 µM (inactive) | > 100 µM (inactive) | > 100 µM (inactive) | < 0.01 µM (active) | > 100 µM (inactive) | > 100 µM (inactive) | > 100 µM (inactive)
COCCOCc1nc(C#N)c(N)o1 | > 100 µM (inactive) | > 100 µM (inactive) | > 100 µM (inactive) | > 100 µM (inactive) | > 100 | > 100 µM (inactive) | > 100 µM (inactive) | > 100 µM (inactive) | > 100 µM (inactive) | > 100 µM (inactive) | > 100 µM (inactive) | > 100 µM (inactive) | > 100 µM (inactive) | > 100 µM (inactive) | > 100 µM (inactive) | > 100 µM (inactive) | > 100 µM (inactive) | > 100 µM (inactive) | > 100 µM (inactive) | > 100 µM (inactive)
CC12CCC(=O)C=C1CCC1C2CCC2(C)C(C(=O)Cn3cnc4c(=S)nc[nH]c43)CCC12 (stereo not given) | 27.2 µM (inactive) | 48.1 µM (inactive) | 23.3 µM (inactive) | 41.5 µM (inactive) | 58.6 | 18.2 µM (inactive) | 33 µM (inactive) | 24.3 µM (inactive) | 38.9 µM (inactive) | 24.7 µM (inactive) | 21.6 µM (inactive) | 40.5 µM (inactive) | 24.5 µM (inactive) | 25.5 µM (inactive) | 28.2 µM (inactive) | 41.9 µM (inactive) | 27.4 µM (inactive) | 36 µM (inactive) | 30.1 µM (inactive) | 23.8 µM (inactive)
CS(=O)(=O)N1CC(CCl)c2ccc(NO)cc21 (stereo not given) | 13.4 µM (inactive) | 35.2 µM (inactive) | 6.89 µM (inactive) | 16.7 µM (inactive) | 14.2 | 17.7 µM (inactive) | 14.3 µM (inactive) | 13.3 µM (inactive) | 15.6 µM (inactive) | 16.6 µM (inactive) | 3.48 µM (inactive) | 19.1 µM (inactive) | 5.06 µM (inactive) | 4.5 µM (inactive) | 20 µM (inactive) | 17.7 µM (inactive) | 2.3 µM (inactive) | 21.3 µM (inactive) | 11.4 µM (inactive) | 13.6 µM (inactive)
O=C1NC(=O)C23C(=O)NC(=O)C12C1C=CC3CC1 (stereo not given) | > 10 µM (inactive) | > 10 µM (inactive) | > 10 µM (inactive) | > 10 µM (inactive) | > 10 | > 10 µM (inactive) | > 10 µM (inactive) | > 10 µM (inactive) | > 10 µM (inactive) | > 10 µM (inactive) | > 10 µM (inactive) | > 10 µM (inactive) | > 10 µM (inactive) | > 10 µM (inactive) | > 10 µM (inactive) | > 10 µM (inactive) | > 10 µM (inactive) | > 10 µM (inactive) | > 10 µM (inactive) | > 10 µM (inactive)
Cc1cc2nc3[nH]c4c(Cl)cc(Cl)cc4c3nc2cc1C | > 100 µM (inactive) | > 100 µM (inactive) | 86.3 µM (inactive) | > 100 µM (inactive) | > 100 | > 100 µM (inactive) | > 100 µM (inactive) | > 100 µM (inactive) | > 100 µM (inactive) | > 100 µM (inactive) | 74 µM (inactive) | > 100 µM (inactive) | > 100 µM (inactive) | > 100 µM (inactive) | > 100 µM (inactive) | > 100 µM (inactive) | 96.8 µM (inactive) | 17.3 µM (inactive) | > 100 µM (inactive) | 84.7 µM (inactive)
